Assays:
Format in all cases: cell-based
[1] = tested on: A431 (epidermoid carcinoma); assay: Antiproliferative activity, CCK-8 cell viability; details: Homo sapiens, A-431, 72 h, read-out: Inhibition of Cancerous Cells, A431; for inhibition at 3.3 µM: compound concentration of 3.3 μM; for inhibition at 10 µM: compound concentration of 10 μM; for inhibition at 30 µM: compound concentration of 30 μM
In short: (§1)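 Viability relative to DMSO controls came from CCK-8 absorbance at 450 nm after 72 h exposure at 37°C. Compound concentrations were 3.3, 10 or 30 μM, in DMEM plus 10% FBS. Results are categorised by inhibition level: at least 50%, 30 to under 50%, or under 30%.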

HeLa (cervical cancer) = assay: Antiproliferative activity, CCK-8 cell viability; details: Homo sapiens, 72 h, read-out: Inhibition of Cancerous Cells, HELA; for inhibition at 3.3 µM: compound concentration of 3.3 μM; for inhibition at 10 µM: compound concentration of 10 μM; for inhibition at 30 µM: compound concentration of 30 μM
SW480 (colon cancer) = assay: Antiproliferative activity, CCK-8 cell viability; details: Homo sapiens, 72 h, read-out: Inhibition of Cancerous Cells, SW480; for inhibition at 3.3 µM: compound concentration of 3.3 μM; for inhibition at 10 µM: compound concentration of 10 μM; for inhibition at 30 µM: compound concentration of 30 μM
In short: as §1

HepG2 (liver cancer) = assay: Antiproliferative activity, CCK-8 cell viability; details: Homo sapiens, 72 h, read-out: Inhibition of Cancerous Cells, HepG2; for inhibition at 3.3 µM: compound concentration of 3.3 μM; for inhibition at 10 µM: compound concentration of 10 μM; for inhibition at 30 µM: compound concentration of 30 μM
In short: as §1

[2] = tested on: MDA-MB-231 (breast cancer); assay: Antiproliferative activity, CCK-8 cell viability; details: Homo sapiens, 72 h, read-out: Inhibition of Cancerous Cells, MDA-MB-231; for inhibition at 3.3 µM: compound concentration of 3.3 μM; for inhibition at 10 µM: compound concentration of 10 μM; for inhibition at 30 µM: compound concentration of 30 μM
In short: as §1

[3] = tested on: A549 (lung adenocarcinoma); assay: Antiproliferative activity, CCK-8 cell viability; details: Homo sapiens, 72 h, read-out: Inhibition of Cancerous Cells, A549; for inhibition at 3.3 µM: compound concentration of 3.3 μM; for inhibition at 10 µM: compound concentration of 10 μM; for inhibition at 30 µM: compound concentration of 30 μM
[4] = tested on: B16F10 (malignant melanoma); assay: Antiproliferative activity, CCK-8 cell viability; details: Mus musculus, B16-F10, 72 h, read-out: Inhibition of Cancerous Cells, B16F10; for inhibition at 3.3 µM: compound concentration of 3.3 μM; for inhibition at 10 µM: compound concentration of 10 μM; for inhibition at 30 µM: compound concentration of 30 μM
In short: as §1

[5] = tested on: alpha-smooth muscle actin (α-SMA); assay: Inhibition of TGF-β induced expression of alpha-smooth muscle actin in CFSC cells (western blot); details: compound at 10 μM, TGF-β (10 ng/mL), 24 hours
In short: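 Read-out is percent decrease in α-SMA western-blot band intensity, β-actin also probed, relative to TGF-β-only cells. CFSC cells were co-treated for 24 h at 37 °C with 10 ng/mL TGF-β and 10 μM compound in serum-free DMEM.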

Structure (SMILES): CC1=C(CC(=O)O)c2cc(F)ccc2/C1=C\c1ccc(Oc2ccc(F)c(F)c2)cc1 [Compound D5, 2-[(1Z)-5-Fluoro-2-methyl-1-({4-[3,4-difluorophenoxy]phenyl}methylidene)-1H-inden-3-yl]acetic acid]
- inhibition at 3.3 µM [1]: < 30%
- inhibition at 10 µM [1]: ≥ 50%
- inhibition at 30 µM [1]: ≥ 50%
- inhibition at 3.3 µM (HeLa (cervical cancer)): 30 to 50%
- inhibition at 10 µM (HeLa (cervical cancer)): ≥ 50%
- inhibition at 30 µM (HeLa (cervical cancer)): ≥ 50%
- inhibition at 3.3 µM (SW480 (colon cancer)): ≥ 50%
- inhibition at 10 µM (SW480 (colon cancer)): ≥ 50%
- inhibition at 30 µM (SW480 (colon cancer)): ≥ 50%
- inhibition at 3.3 µM (HepG2 (liver cancer)): ≥ 50%
- inhibition at 10 µM (HepG2 (liver cancer)): ≥ 50%
- inhibition at 30 µM (HepG2 (liver cancer)): ≥ 50%
- inhibition at 3.3 µM [2]: ≥ 50%
- inhibition at 10 µM [2]: ≥ 50%
- inhibition at 30 µM [2]: ≥ 50%
- inhibition at 3.3 µM [3]: 30 to 50%
- inhibition at 10 µM [3]: ≥ 50%
- inhibition at 30 µM [3]: ≥ 50%
- inhibition at 3.3 µM [4]: ≥ 50%
- inhibition at 10 µM [4]: ≥ 50%
- inhibition at 30 µM [4]: ≥ 50%
- inhibition at 10 µM [5]: ≥ 80%

Structure (SMILES): CC1=C(CC(=O)O)c2cc(F)ccc2/C1=C\c1cccc(OCc2ccccc2)c1 [Compound A4, 2-[(1Z)-5-Fluoro-1-(3-(benzyloxy)benzylidene)-2-methyl-1H-inden-3-yl]-acetic acid]
- inhibition at 3.3 µM [1]: 30 to 50%
- inhibition at 10 µM [1]: ≥ 50%
- inhibition at 30 µM [1]: ≥ 50%
- inhibition at 3.3 µM (HeLa (cervical cancer)): 30 to 50%
- inhibition at 10 µM (HeLa (cervical cancer)): ≥ 50%
- inhibition at 30 µM (HeLa (cervical cancer)): ≥ 50%
- inhibition at 3.3 µM (SW480 (colon cancer)): 30 to 50%
- inhibition at 10 µM (SW480 (colon cancer)): ≥ 50%
- inhibition at 30 µM (SW480 (colon cancer)): ≥ 50%
- inhibition at 3.3 µM (HepG2 (liver cancer)): < 30%
- inhibition at 10 µM (HepG2 (liver cancer)): < 30%
- inhibition at 30 µM (HepG2 (liver cancer)): ≥ 50%
- inhibition at 3.3 µM [2]: ≥ 50%
- inhibition at 10 µM [2]: ≥ 50%
- inhibition at 30 µM [2]: ≥ 50%
- inhibition at 3.3 µM [3]: 30 to 50%
- inhibition at 10 µM [3]: ≥ 50%
- inhibition at 30 µM [3]: ≥ 50%
- inhibition at 3.3 µM [4]: ≥ 50%
- inhibition at 10 µM [4]: ≥ 50%
- inhibition at 30 µM [4]: ≥ 50%
- inhibition at 10 µM [5]: 50 to 80%

Structure (SMILES): CC1=C(CC(=O)O)c2cc(F)ccc2/C1=C\c1ccc(Cc2ccc(F)cc2)cc1 [Compound A3, 2-[(1Z)-5-Fluoro-2-methyl-1-({4-[4-fluorobenzyl]phenyl}methylidene)-1H-inden-3-yl]acetic acid]
- inhibition at 3.3 µM [1]: < 30%
- inhibition at 10 µM [1]: ≥ 50%
- inhibition at 30 µM [1]: ≥ 50%
- inhibition at 3.3 µM (HeLa (cervical cancer)): < 30%
- inhibition at 10 µM (HeLa (cervical cancer)): 30 to 50%
- inhibition at 30 µM (HeLa (cervical cancer)): ≥ 50%
- inhibition at 3.3 µM (SW480 (colon cancer)): ≥ 50%
- inhibition at 10 µM (SW480 (colon cancer)): ≥ 50%
- inhibition at 30 µM (SW480 (colon cancer)): ≥ 50%
- inhibition at 3.3 µM (HepG2 (liver cancer)): ≥ 50%
- inhibition at 10 µM (HepG2 (liver cancer)): ≥ 50%
- inhibition at 30 µM (HepG2 (liver cancer)): ≥ 50%
- inhibition at 3.3 µM [2]: ≥ 50%
- inhibition at 10 µM [2]: ≥ 50%
- inhibition at 30 µM [2]: ≥ 50%
- inhibition at 3.3 µM [3]: < 30%
- inhibition at 10 µM [3]: ≥ 50%
- inhibition at 30 µM [3]: ≥ 50%
- inhibition at 3.3 µM [4]: < 30%
- inhibition at 10 µM [4]: 30 to 50%
- inhibition at 30 µM [4]: ≥ 50%
- inhibition at 10 µM [5]: ≥ 80%

Structure (SMILES): O=C(O)CC1=C/C(=C/c2ccc(Oc3ccc(F)cc3)cc2)c2ccc(F)cc21 [Compound D33, 2-[(1Z)-5-Fluoro-1-{[4-(4-fluorophenoxy)phenyl]methylidene}-1H-inden-3-yl]acetic acid]
- inhibition at 3.3 µM [1]: < 30%
- inhibition at 10 µM [1]: 30 to 50%
- inhibition at 30 µM [1]: ≥ 50%
- inhibition at 3.3 µM (HeLa (cervical cancer)): 30 to 50%
- inhibition at 10 µM (HeLa (cervical cancer)): < 30%
- inhibition at 30 µM (HeLa (cervical cancer)): ≥ 50%
- inhibition at 3.3 µM (SW480 (colon cancer)): 30 to 50%
- inhibition at 10 µM (SW480 (colon cancer)): ≥ 50%
- inhibition at 30 µM (SW480 (colon cancer)): ≥ 50%
- inhibition at 3.3 µM (HepG2 (liver cancer)): ≥ 50%
- inhibition at 10 µM (HepG2 (liver cancer)): ≥ 50%
- inhibition at 30 µM (HepG2 (liver cancer)): ≥ 50%
- inhibition at 3.3 µM [2]: ≥ 50%
- inhibition at 10 µM [2]: ≥ 50%
- inhibition at 30 µM [2]: ≥ 50%
- inhibition at 3.3 µM [3]: 30 to 50%
- inhibition at 10 µM [3]: 30 to 50%
- inhibition at 30 µM [3]: ≥ 50%
- inhibition at 3.3 µM [4]: 30 to 50%
- inhibition at 10 µM [4]: ≥ 50%
- inhibition at 30 µM [4]: ≥ 50%
- inhibition at 10 µM [5]: < 30%

Source: patent US20240116845A1, “INDENE COMPOUNDS, PHARMACEUTICAL COMPOSITIONS THEREOF, AND THEIR THERAPEUTIC APPLICATIONS” (NucMito Pharmaceuticals Co., Ltd., priority 2021, published 2024)
